Measurements published in the supplement of paper PMC10627819.

Tests used:
B. subtilis 168 [1] = experiment: fitness (endpoint OD595 vs no drug) (fraction); higher = more growth
Method in brief: (§1)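 Bacterial fitness was scored as optical density at the stationary-phase transition relative to the robust mean of no-drug control wells. Scores are capped at 1. The growth data were OD595 readings every 30 min for 14 h at 37 °C, background-subtracted against the first reading, from 384-well plates inoculated at OD595 0.01 in TSB, LB Lennox or CY.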

S. aureus Newman [2] = experiment: as above
Method in brief: as §1

S. pneumoniae D39V [3] = experiment: as above
Method in brief: as §1

B. subtilis 168 [4] = experiment: Bliss interaction score (quartile over a dose matrix) (fitness difference); higher = more antagonism (negative = synergy)
Method in brief: (§2)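 The Bliss score is observed minus expected fitness, where expected fitness is the product of the single-drug fitness values inferred from the combination data. Fitness is the OD595 at the onset of stationary phase over the plate's robust no-drug mean, capped at 1. Scores are summarised by quartiles over technical, biological and donor/recipient replicates.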

S. aureus DSM 20231 = experiment: as above
Method in brief: as §2

S. aureus Newman [5] = experiment: as above
Method in brief: as §2

S. pneumoniae D39V [6] = experiment: as above
Method in brief: as §2
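For Bliss interaction score (quartile over a dose matrix) in this document: first quartile when negative (synergy) and third quartile when positive (antagonism).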
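For fitness (endpoint OD595 vs no drug) in this document: OD595 on entry to stationary phase over no-drug wells; at most 1.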

O=C(O)c1cn(C2CC2)c2cc(N3CCNCC3)c(F)cc2c1=O [Ciprofloxacin] + CN[C@@H]1[C@H](O[C@H]2[C@H](O[C@H]3[C@H](O)[C@@H](O)[C@H](N=C(N)N)[C@@H](O)[C@@H]3N=C(N)N)O[C@@H](C)[C@]2(O)C=O)O[C@@H](CO)[C@H](O)[C@H]1O [Streptomycin]
fitness
Conditions | partner 1 µg/mL | partner 2 µg/mL | partner 4 µg/mL | partner 8 µg/mL
B. subtilis 168 [1], first compound 0.0098 µg/mL | – | 0.861 | – | –
B. subtilis 168 [1], first compound 0.0195 µg/mL | – | 0.601 | – | –
B. subtilis 168 [1], first compound 0.039 µg/mL | – | 0.0408 | 0.0521 | 0.0363
S. aureus Newman [2], first compound 0.0375 µg/mL | 0.737 | 0.7 | – | –
S. aureus Newman [2], first compound 0.075 µg/mL | 0.68 | 0.65 | – | –
S. aureus Newman [2], first compound 0.15 µg/mL | – | 0.0504 | 0.066 | –
S. pneumoniae D39V [3], first compound 0.125 µg/mL | – | 0.916 | 0.936 | 0.909
S. pneumoniae D39V [3], first compound 0.25 µg/mL | – | 0.872 | 0.774 | 0.765

S. pneumoniae D39V [3], partner 16 µg/mL, one replicate
Conditions | fitness
first compound 0.125 µg/mL | 0.739
first compound 0.25 µg/mL | 0.668
first compound 0.5 µg/mL | 0.379

Conditions | Bliss interaction score
B. subtilis 168 [4] | -0.109
S. aureus DSM 20231 | -0.0869
S. aureus Newman [5] | 0.0876
S. pneumoniae D39V [6] | -0.0549

COc1ccc(C[C@H](N)C(=O)N[C@H]2[C@@H](O)[C@H](n3cnc4c(N(C)C)ncnc43)O[C@@H]2CO)cc1 [Puromycin] + CN(C)c1cc(NC(=O)CNC(C)(C)C)c(O)c2c1C[C@H]1C[C@H]3[C@H](N(C)C)C(O)=C(C(N)=O)C(=O)[C@@]3(O)C(O)=C1C2=O [Tigecycline]
fitness
Conditions | first compound 0.39 µg/mL | first compound 0.78 µg/mL | first compound 1 µg/mL | first compound 1.56 µg/mL | first compound 2 µg/mL | first compound 4 µg/mL
B. subtilis 168 [1], partner 0.039 µg/mL | 0.945 | 0.976 | – | 0.953 | – | –
B. subtilis 168 [1], partner 0.078 µg/mL | 0.945 | 0.925 | – | 0.958 | – | –
B. subtilis 168 [1], partner 0.156 µg/mL | 0.895 | 0.964 | – | 0.924 | – | –
S. aureus Newman [2], partner 0.039 µg/mL | ≥ 1 | 0.999 | – | 0.985 | – | –
S. aureus Newman [2], partner 0.078 µg/mL | ≥ 1 | 0.995 | – | 0.995 | – | –
S. aureus Newman [2], partner 0.156 µg/mL | ≥ 1 | 0.991 | – | ≥ 1 | – | –
S. pneumoniae D39V [3], partner 0.65 µg/mL | – | – | 0.921 | – | 0.892 | 0.723
S. pneumoniae D39V [3], partner 1.3 µg/mL | – | – | 0.927 | – | 0.931 | 0.71
S. pneumoniae D39V [3], partner 2.6 µg/mL | – | – | ≥ 1 | – | 0.941 | 0.797

fitness, B. subtilis 168 [1], one replicate
Conditions | first compound 0.39 µg/mL | first compound 0.78 µg/mL | first compound 1.56 µg/mL
partner 0.125 µg/mL | ≥ 1 | 0.997 | ≥ 1
partner 0.25 µg/mL | 0.862 | 0.938 | 0.92
partner 0.5 µg/mL | 0.908 | 0.893 | 0.903

Conditions | Bliss interaction score
B. subtilis 168 [4] | -0.044
S. aureus DSM 20231 | 0.0709
S. aureus Newman [5] | 0.0585
S. pneumoniae D39V [6] | 0.062

C[C@@H]1O[C@@H]1P(=O)(O)O [Fosfomycin] + CN(C)c1cc(NC(=O)CNC(C)(C)C)c(O)c2c1C[C@H]1C[C@H]3[C@H](N(C)C)C(O)=C(C(N)=O)C(=O)[C@@]3(O)C(O)=C1C2=O [Tigecycline]
Conditions | fitness
B. subtilis 168 [1], first compound 1.562 µg/mL, partner 0.039 µg/mL | 0.76
B. subtilis 168 [1], first compound 1.562 µg/mL, partner 0.078 µg/mL | 0.746
B. subtilis 168 [1], first compound 1.562 µg/mL, partner 0.156 µg/mL | 0.713
B. subtilis 168 [1], first compound 3.124 µg/mL, partner 0.039 µg/mL | 0.655
B. subtilis 168 [1], first compound 3.124 µg/mL, partner 0.078 µg/mL | 0.598
B. subtilis 168 [1], first compound 3.124 µg/mL, partner 0.156 µg/mL | 0.595
B. subtilis 168 [1], first compound 6.248 µg/mL, partner 0.039 µg/mL | 0.52
B. subtilis 168 [1], first compound 6.248 µg/mL, partner 0.078 µg/mL | 0.488
B. subtilis 168 [1], first compound 6.248 µg/mL, partner 0.156 µg/mL | 0.492
S. aureus Newman [2], first compound 0.781 µg/mL, partner 0.039 µg/mL | 0.558
S. aureus Newman [2], first compound 0.781 µg/mL, partner 0.078 µg/mL | 0.57
S. aureus Newman [2], first compound 0.781 µg/mL, partner 0.156 µg/mL | 0.593
S. aureus Newman [2], first compound 1.562 µg/mL, partner 0.039 µg/mL | 0.47
S. aureus Newman [2], first compound 1.562 µg/mL, partner 0.078 µg/mL | 0.504
S. aureus Newman [2], first compound 1.562 µg/mL, partner 0.156 µg/mL | 0.518
S. aureus Newman [2], first compound 3.124 µg/mL, partner 0.039 µg/mL | 0.177
S. aureus Newman [2], first compound 3.124 µg/mL, partner 0.078 µg/mL | 0.188
S. aureus Newman [2], first compound 3.124 µg/mL, partner 0.156 µg/mL | 0.184
S. pneumoniae D39V [3], first compound 1.25 µg/mL, partner 0.325 µg/mL | 0.929
S. pneumoniae D39V [3], first compound 1.25 µg/mL, partner 0.65 µg/mL | 0.921
S. pneumoniae D39V [3], first compound 1.25 µg/mL, partner 1.3 µg/mL | 0.942
S. pneumoniae D39V [3], first compound 1.25 µg/mL, partner 2.6 µg/mL | 0.921
S. pneumoniae D39V [3], first compound 2.5 µg/mL, partner 0.325 µg/mL | 0.953
S. pneumoniae D39V [3], first compound 2.5 µg/mL, partner 0.65 µg/mL | 0.912
S. pneumoniae D39V [3], first compound 2.5 µg/mL, partner 1.3 µg/mL | 0.92
S. pneumoniae D39V [3], first compound 2.5 µg/mL, partner 2.6 µg/mL | 0.86
S. pneumoniae D39V [3], first compound 5 µg/mL, partner 0.325 µg/mL | 0.796
S. pneumoniae D39V [3], first compound 5 µg/mL, partner 0.65 µg/mL | 0.748
S. pneumoniae D39V [3], first compound 5 µg/mL, partner 1.3 µg/mL | 0.791
S. pneumoniae D39V [3], first compound 5 µg/mL, partner 2.6 µg/mL | 0.809

fitness, B. subtilis 168 [1], one replicate
Conditions | first compound 1.562 µg/mL | first compound 3.124 µg/mL | first compound 6.248 µg/mL
partner 0.125 µg/mL | 0.833 | 0.771 | 0.576
partner 0.25 µg/mL | 0.819 | 0.662 | 0.537
partner 0.5 µg/mL | 0.753 | 0.683 | 0.568

Conditions | Bliss interaction score
B. subtilis 168 [4] | -0.0396
S. aureus DSM 20231 | 0.044
S. aureus Newman [5] | -0.0631
S. pneumoniae D39V [6] | 0.0555
